Measurements published in patent US20210276987A1, “PHARMACEUTICAL AGENTS FOR USE IN SMOKING AND TOBACCO CESSATION” (Washington State University, priority 2018, published 2021).

Assays:
UGT2B10 = target: T1, UGT2B10 (Homo sapiens, UniProt P36537); test: biochemical
T1 sequence (P36537 24-528): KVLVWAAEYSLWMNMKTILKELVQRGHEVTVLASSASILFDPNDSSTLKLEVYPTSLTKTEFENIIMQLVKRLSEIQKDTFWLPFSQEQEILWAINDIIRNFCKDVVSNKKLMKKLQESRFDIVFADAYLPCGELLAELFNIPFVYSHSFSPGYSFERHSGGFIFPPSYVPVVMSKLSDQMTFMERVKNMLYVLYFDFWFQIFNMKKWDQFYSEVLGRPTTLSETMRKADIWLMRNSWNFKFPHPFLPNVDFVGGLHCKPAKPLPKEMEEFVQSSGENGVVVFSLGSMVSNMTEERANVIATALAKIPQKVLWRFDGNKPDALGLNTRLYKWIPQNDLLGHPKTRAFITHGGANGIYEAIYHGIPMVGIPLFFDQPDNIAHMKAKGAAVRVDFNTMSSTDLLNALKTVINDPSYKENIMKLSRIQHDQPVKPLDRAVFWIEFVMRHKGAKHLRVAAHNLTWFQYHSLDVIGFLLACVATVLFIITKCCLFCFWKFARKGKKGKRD
Experimental: Initial screening assays were performed as described above for the CYP assays using 1 μM or 10 μM of each of the NAs. The inhibitory effects of each agent against UGT2B10 was performed using the known UGT2B10-specific probe substrate, nicotine, in pooled human liver microsomes. […] Pre-incubations containing 500 μM nicotine and 1 or 10 μM NA were subsequently performed at 37° C. in 50 mM Tris-HCl buffer (pH 7.5, in a final volume of 50 μL) and 10 mM MgCl2 for 5 minutes.

[1] = system: UGTs 1A1, 1A4, 1A6, 1A9, 2B4, 2B7, 2B10, 2B15 and 2B17; test: Selectivity over other major hepatic UGT enzymes (panel statement); format: biochemical, human
CYP1A2 = target: T2, CYP1A2 (Homo sapiens, UniProt P05177); test: CYP1A2 inhibition assay, human liver microsomes, phenacetin probe (cocktail); conditions: Table 6
T2 sequence (P05177 1-516): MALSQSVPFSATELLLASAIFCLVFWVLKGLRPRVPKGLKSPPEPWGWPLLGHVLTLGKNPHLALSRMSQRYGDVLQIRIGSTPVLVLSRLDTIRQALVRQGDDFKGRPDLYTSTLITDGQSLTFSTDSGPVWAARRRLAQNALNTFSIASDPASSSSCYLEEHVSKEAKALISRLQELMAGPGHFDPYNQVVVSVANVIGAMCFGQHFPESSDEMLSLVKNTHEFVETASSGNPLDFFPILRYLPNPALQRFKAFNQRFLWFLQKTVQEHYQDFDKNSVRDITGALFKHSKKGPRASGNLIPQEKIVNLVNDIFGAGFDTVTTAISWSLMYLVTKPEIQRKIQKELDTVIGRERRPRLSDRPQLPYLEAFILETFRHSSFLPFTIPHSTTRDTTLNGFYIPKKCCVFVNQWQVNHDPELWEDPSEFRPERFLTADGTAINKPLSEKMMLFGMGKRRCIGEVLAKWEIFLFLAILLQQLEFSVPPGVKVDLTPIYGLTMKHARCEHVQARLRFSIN

CYP2D6 = CYP2D6 (Homo sapiens, UniProt P10635); test: CYP2D6 inhibition assay, human liver microsomes, dextromethorphan probe (cocktail); conditions: Table 6
CYP2D6, sequence (P10635 whole entry): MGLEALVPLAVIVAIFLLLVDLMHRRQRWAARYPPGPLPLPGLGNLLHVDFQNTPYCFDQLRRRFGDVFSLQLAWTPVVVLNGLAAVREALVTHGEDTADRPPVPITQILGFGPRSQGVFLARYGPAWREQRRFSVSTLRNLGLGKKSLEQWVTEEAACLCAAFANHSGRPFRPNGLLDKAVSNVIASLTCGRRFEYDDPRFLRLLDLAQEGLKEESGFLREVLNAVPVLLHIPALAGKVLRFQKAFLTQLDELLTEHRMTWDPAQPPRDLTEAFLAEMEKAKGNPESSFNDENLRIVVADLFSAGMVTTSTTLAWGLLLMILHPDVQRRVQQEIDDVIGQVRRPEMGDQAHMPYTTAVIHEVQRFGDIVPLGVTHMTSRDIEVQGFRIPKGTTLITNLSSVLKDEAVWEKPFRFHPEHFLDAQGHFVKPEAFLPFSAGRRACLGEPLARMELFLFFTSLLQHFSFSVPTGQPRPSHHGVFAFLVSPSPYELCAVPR

SMILES: COc1ccncc1C#CCN [Compound K, 3-(4-methoxypyridin-3-yl)prop-2-yn-1-amine]
- IC50 (UGT2B10; IC50 against UGT2B10): < 60 µM
- IC50 (UGT2B10; IC50 against UGT2B10 (μM), Table 9, pooled human liver microsomes, nicotine 500 μM): 33 µM
- UGThepatic/UGT2B10 IC50 ratio against all UGT enzymes tested [1]: > 3.5
- IC50 ratio CYP1A2/CYP2A6 (CYP1A2): 7.4
- IC50 ratio CYP2D6/CYP2A6 (CYP2D6): >15
